Counter-ions that a name gives are not always drawn.
Columns and labels:
Experiment in all cases: biochemical
[1] = molecular target: T1, ZmDRIK1-R187-P492 (Zea mays, UniProt C0P4K9); settings: read-out: dTm B, DSF, Boltzmann fit, 0.1% DMSO
T1 construct: kinase domain, R187-P492
T1 sequence (C0P4K9 1-514): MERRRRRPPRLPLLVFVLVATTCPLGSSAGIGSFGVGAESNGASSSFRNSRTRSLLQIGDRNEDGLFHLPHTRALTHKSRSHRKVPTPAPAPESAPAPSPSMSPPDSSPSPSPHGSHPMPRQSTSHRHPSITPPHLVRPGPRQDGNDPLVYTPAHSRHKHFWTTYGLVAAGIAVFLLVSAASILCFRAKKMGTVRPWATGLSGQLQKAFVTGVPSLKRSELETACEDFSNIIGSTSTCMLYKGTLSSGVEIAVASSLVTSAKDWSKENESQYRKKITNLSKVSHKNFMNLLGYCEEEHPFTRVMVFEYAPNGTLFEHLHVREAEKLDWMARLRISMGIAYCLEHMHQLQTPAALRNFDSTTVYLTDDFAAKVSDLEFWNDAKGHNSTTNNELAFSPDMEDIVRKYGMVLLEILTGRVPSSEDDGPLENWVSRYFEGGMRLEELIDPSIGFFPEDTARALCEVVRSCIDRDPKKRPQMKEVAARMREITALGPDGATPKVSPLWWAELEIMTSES

[2] = molecular target: T2, ZmDRIK1 (DROUGHT RESPONSIVE INACTIVE KINASE 1), kinase domain (Zea mays, UniProt C0P4K9); settings: read-out: dTm B, sheet ZmDRIK1-R187-S514;; DSF, Boltzmann fit, 0.1% DMSO
T2 construct: gene ZEAMMB73_Zm00001d028770; ZmDRIK1-KD R187-S514 (kinase domain)
T2 sequence (C0P4K9 187-514): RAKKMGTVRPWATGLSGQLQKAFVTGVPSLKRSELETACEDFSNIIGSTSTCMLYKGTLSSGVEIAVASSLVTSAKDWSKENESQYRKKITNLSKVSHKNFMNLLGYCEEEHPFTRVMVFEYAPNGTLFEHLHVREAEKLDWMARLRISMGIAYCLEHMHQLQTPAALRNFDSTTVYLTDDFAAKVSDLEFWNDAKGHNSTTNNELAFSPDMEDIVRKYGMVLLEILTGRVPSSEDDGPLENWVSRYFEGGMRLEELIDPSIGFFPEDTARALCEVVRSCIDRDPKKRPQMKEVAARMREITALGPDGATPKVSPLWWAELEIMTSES

[3] = molecular target: T3, ZmDRIK1-K217-S514 (Zea mays, UniProt C0P4K9); settings: read-out: dTm B, sheet ZmDRIK1-K217-S514;; DSF, Boltzmann fit, 0.1% DMSO
T3 construct: kinase domain, K217-S514
T3 sequence (C0P4K9 1-514): T1 sequence (C0P4K9 1-514)

[4] = molecular target: T4, ZmDRIK1-K217-P492 (Zea mays, UniProt C0P4K9); settings: read-out: dTm B, sheet ZmDRIK1-K217-P492;; DSF, Boltzmann fit, 0.1% DMSO
T4 construct: kinase domain, K217-P492
T4 sequence (C0P4K9 1-514): T1 sequence (C0P4K9 1-514)

| Compound | ΔTm at 10 µM [1] [°C] | ΔTm at 10 µM [2] [°C] | ΔTm at 10 µM [3] [°C] | ΔTm at 10 µM [4] [°C] |
| --- | --- | --- | --- | --- |
| Cc1[nH]c(/C=C2\C(=O)Nc3ccc(S(=O)(=O)Cc4c(Cl)cccc4Cl)cc32)c(C)c1C(=O)N1CCC[C@@H]1CN1CCCC1 [PHA-665752] | -0.648 | -0.988 | -0.843 | -1.25 |
| CNC(=O)c1c(F)cccc1Nc1nc(Nc2cc3c(ccn3C(=O)CN(C)C)cc2OC)nc2[nH]ccc12 [GSK1838705A] | -0.292 | -0.961 | -0.398 | -0.578 |
| COc1cccc2cc(-c3nc([C@H]4CC[C@H](C(=O)O)CC4)n4ncnc(N)c34)[nH]c12 [OSI-027] | -0.418 | -0.416 | -0.417 | -1.03 |
| C=CC(=O)Nc1cc(Nc2nccc(-c3cn(C)c4ccccc34)n2)c(OC)cc1N(C)CCN(C)C [AZD9291] | -0.293 | -0.497 | -0.27 | -1.19 |
| CCN(CC)CCCCNc1ncc2cc(-c3cc(OC)cc(OC)c3)c(NC(=O)NC(C)(C)C)nc2n1 [PD173074] | -0.212 | -0.711 | -0.228 | -0.962 |
| Cn1cnc(N)c2ncnc1-2 [3-Methyladenine] | -0.274 | -0.528 | -0.375 | -0.621 |
| CC(C)(C)NS(=O)(=O)c1cncc(-c2cc(F)c3nc(N)nn3c2)c1 [CZC24832] | -0.444 | -0.757 | -0.339 | -1.04 |
| Cc1c(NC(=O)c2ccc(C(C)(C)C)cc2)cccc1-c1cn(C)c(=O)c(Nc2ccc(C(=O)N3CCOCC3)cc2)n1 [CGI1746] | -0.389 | -1.61 | -0.561 | -1.51 |
| N#CCNC(=O)c1ccc(-c2ccnc(Nc3ccc(N4CCOCC4)cc3)n2)cc1 [CYT387] | -0.227 | -0.664 | -0.388 | -0.574 |
| CN1CCC(c2c(O)cc(O)c3c(=O)cc(-c4ccccc4Cl)oc23)C1CO (stereo not shown) [P276-00] | -0.274 | -0.748 | -0.359 | -0.275 |
| COc1ccc2cc(-c3nc(-c4ccc([S+](C)[O-])cc4)[nH]c3-c3ccncc3)ccc2c1 (stereo not shown) [Tie2 kinase inhibitor] | -0.238 | -0.713 | -4.75 | -1.05 |
| O=C(Nc1c[nH]nc1-c1nc2ccc(CN3CCOCC3)cc2[nH]1)NC1CC1 [AT9283] | -0.23 | -0.914 | -0.536 | -0.742 |
| CCc1cccc(CC)c1NC(=O)N1Cc2[nH]nc(NC(=O)c3ccc(N4CCN(C)CC4)cc3)c2C1 [PHA-680632] | -0.18 | -0.776 | -0.247 | -0.924 |
| C[C@@H]1COC(Nc2ccc3ncnc(Nc4ccc(OCc5nccs5)c(Cl)c4)c3c2)=N1 [Varlitinib] | -0.314 | -0.97 | -0.516 | -0.993 |
| O=C(NCc1ccccc1)c1csc(Nc2ccncn2)n1 [Thiazovivin] | -0.171 | -0.845 | -0.368 | -0.879 |
| Nc1cc(C(F)(F)F)c(-c2cc(N3CCOCC3)nc(N3CCOCC3)n2)cn1 [BKM120 (NVP-BKM120)] | -0.326 | -0.731 | -0.33 | -1.39 |
| CCN1CCN(C(=O)Cc2ccc(Nc3ncc(F)c(Nc4ccc(C(=O)Nc5ccccc5Cl)cc4)n3)cc2)CC1 [Aurora A Inhibitor I] | -0.457 | -0.616 | -0.286 | -1.33 |
| CCC(=O)Nc1cccc(Oc2nc(Nc3ccc(N4CCN(C)CC4)cc3OC)ncc2Cl)c1 [WZ4003] | -0.432 | -0.786 | -0.358 | -1.1 |
| CCn1c(-c2nonc2N)nc2c(C#CC(C)(C)O)ncc(OC[C@H]3CCCNC3)c21 [GSK690693] | -0.153 | -0.678 | -0.204 | -1.08 |

| Compound | ΔTm at 10 µM [1] [°C] | ΔTm at 10 µM [2] [°C] | ΔTm at 10 µM [3] [°C] | ΔTm at 10 µM [4] [°C] |
| --- | --- | --- | --- | --- |
| Cc1cc([C@@H](C)Nc2ccccc2C(=O)O)c2nc(N3CCOCC3)cc(=O)n2c1 [AZD6482] | -0.2 | -0.715 | -0.29 | -1.04 |
| N=C(N)NC(=N)NCCc1ccccc1 [Phenformin HCl] | -0.125 | -0.596 | -0.473 | -1.3 |
| CCN(CCO)CCCOc1ccc2c(Nc3cc(CC(=O)Nc4cccc(F)c4)[nH]n3)ncnc2c1 [Barasertib (AZD1152-HQPA)] | -0.129 | -1.11 | -0.253 | -0.927 |
| C=CCc1ccc(O)c(-c2ccc(O)c(CC=C)c2)c1 [Honokiol] | -0.457 | -0.751 | -0.593 | -1.49 |
| COc1cc2c(N3CCN(C(=O)Nc4ccc(OC(C)C)cc4)CC3)ncnc2cc1OCCCN1CCCCC1 [Tandutinib (MLN518)] | -0.158 | -0.869 | -0.303 | -0.971 |
| Cn1cc(C2=C(c3cn(C4CCN(Cc5ccccn5)CC4)c4ccccc34)C(=O)NC2=O)c2ccccc21 [Enzastaurin (LY317615)] | -0.261 | -0.678 | -0.275 | -1.33 |
| Cc1c(NC(=O)OC[C@@H]2COCCN2)cn2ncnc(Nc3ccc4c(cnn4Cc4cccc(F)c4)c3)c12 [AC480 (BMS-599626)] | -0.278 | -0.997 | -0.265 | -0.766 |
| COc1ccc(COc2cc3oc(=O)c4cc(C(C)O)ccc4c3cc2OC)cc1 (stereo not shown) [Palomid 529 (P529)] | -0.229 | -0.623 | -0.134 | -0.76 |
| Oc1ccc(-c2nc(-c3ccc(F)cc3)c(-c3ccncc3)[nH]2)cc1 [SB202190 (FHPI)] | -18.3 | 0.194 | 2.58 | 1.22 |
| N#C/C(=C\c1ccc(O)c(O)c1)C(=O)NCc1ccccc1 [AG-490 (Tyrphostin B42)] | -0.394 | -1.15 | -0.507 | -0.722 |
| CN1CCCN(C(=O)c2cccc(-c3ccc(/C=C4/C(=O)Nc5ccc(Cl)cc54)o3)c2)CC1 [CX-6258 HCl] | -0.49 | -1.14 | -0.341 | -1.21 |
| COc1cc2nccc(Oc3ccc(NC(=O)NC4CC4)c(Cl)c3)c2cc1C(N)=O [Lenvatinib (E7080)] | -0.406 | -1.04 | -0.299 | -1.02 |
| COc1cc(OC)c(/C=C/S(=O)(=O)Cc2ccc(OC)c(NCC(=O)O)c2)c(OC)c1 [Rigosertib (ON-01910)] | -0.217 | -0.824 | -0.421 | -0.805 |
| Cc1ncc(-c2ccnc(Nc3ccc(S(C)(=O)=O)cc3)n2)n1C(C)C [AZD5438] | -0.417 | -0.576 | -0.394 | -1.24 |
| CN(C)C/C=C/C(=O)Nc1cc2c(Nc3ccc(F)c(Cl)c3)ncnc2cc1O[C@H]1CCOC1 [Afatinib (BIBW2992)] | -0.346 | -0.728 | -0.623 | -1.3 |
| CC(C)(C)c1cc(C=C(C#N)C#N)cc(Br)c1O [AG-1024] | -0.615 | -0.562 | -0.233 | -1.09 |
| COc1ccc2c(c1)c(C1=C(c3c[nH]c4ccccc34)C(=O)NC1=O)cn2CCCN(C)C [Go 6983] | -0.26 | -0.633 | -0.364 | -1.22 |
| Cc1[nH]c(/C=C2\C(=O)Nc3ccc(S(=O)(=O)N(C)c4cccc(Cl)c4)cc32)c(C)c1C(=O)N1CCN(C)CC1 [SU11274] | -0.288 | -1.31 | -0.605 | -0.463 |

Reference: PMC7158045 (BMC Plant Biology, 2020)
